Measurements published in PMC9501633, “Synthesis, Characterisation and Mechanism of Action of Anticancer 3-Fluoroazetidin-2-ones” (Pharmaceuticals, 2022).

Experiments:
M14 = experiment: NCI 60 cell line screen, Melanoma; type: cell-based, human; settings: one dose 10 µM; for inhibition at 10 µM: Homo sapiens
HS 578T = experiment: NCI 60 cell line screen, Breast; type: cell-based, human; settings: one dose 10 µM; for inhibition at 10 µM: Homo sapiens
SW-620 = experiment: NCI 60 cell line screen, Colon; type: cell-based, human; settings: one dose 10 µM; for inhibition at 10 µM: Homo sapiens
MDA-MB-435 = experiment: NCI 60 cell line screen, Melanoma; type: cell-based, human; settings: one dose 10 µM; for inhibition at 10 µM: Homo sapiens
SK-MEL-5 = experiment: NCI 60 cell line screen, Melanoma; type: cell-based, human; settings: one dose 10 µM; for inhibition at 10 µM: Homo sapiens
OVCAR-4 = experiment: NCI 60 cell line screen, Ovarian; type: cell-based, human; settings: one dose 10 µM; for inhibition at 10 µM: Homo sapiens
HOP-62 = experiment: NCI 60 cell line screen, NSCLung; type: cell-based, human; settings: one dose 10 µM; for inhibition at 10 µM: Homo sapiens
SR = experiment: NCI 60 cell line screen, Leukaemia; type: cell-based, human; settings: one dose 10 µM; for inhibition at 10 µM: Homo sapiens
U251 = experiment: NCI 60 cell line screen, CNS; type: cell-based, human; settings: for inhibition at 10 µM: Homo sapiens, U-251, one dose 10 µM; for Growth %: one dose 10 µM
SF-295 = experiment: NCI 60 cell line screen, CNS; type: cell-based, human; settings: one dose 10 µM; for inhibition at 10 µM: Homo sapiens
SK-OV-3 = experiment: NCI 60 cell line screen, Ovarian; type: cell-based, human; settings: one dose 10 µM; for inhibition at 10 µM: Homo sapiens
NCI-H226 = experiment: NCI 60 cell line screen, NSCLung; type: cell-based, human; settings: one dose 10 µM; for inhibition at 10 µM: Homo sapiens
MOLT-4 = experiment: NCI 60 cell line screen, Leukaemia; type: cell-based, human; settings: one dose 10 µM; for inhibition at 10 µM: Homo sapiens
HOP-92 = experiment: NCI 60 cell line screen, NSCLung; type: cell-based, human; settings: one dose 10 µM; for inhibition at 10 µM: Homo sapiens
HT29 = experiment: NCI 60 cell line screen, Colon; type: cell-based, human; settings: for inhibition at 10 µM: Homo sapiens, HT-29, one dose 10 µM; for Growth %: one dose 10 µM
NCI-H522 = experiment: NCI 60 cell line screen, NSCLung; type: cell-based, human; settings: one dose 10 µM; for inhibition at 10 µM: Homo sapiens
UACC-257 = experiment: NCI 60 cell line screen, Melanoma; type: cell-based, human; settings: one dose 10 µM; for inhibition at 10 µM: Homo sapiens
HCT-15 = experiment: NCI 60 cell line screen, Colon; type: cell-based, human; settings: one dose 10 µM; for inhibition at 10 µM: Homo sapiens
A498 = experiment: NCI 60 cell line screen, Renal; type: cell-based, human; settings: one dose 10 µM; for inhibition at 10 µM: Homo sapiens
OVCAR-3 = experiment: NCI 60 cell line screen, Ovarian; type: cell-based, human; settings: one dose 10 µM; for inhibition at 10 µM: Homo sapiens
KM12 = experiment: NCI 60 cell line screen, Colon; type: cell-based, human; settings: one dose 10 µM; for inhibition at 10 µM: Homo sapiens
MDA-MB-468 = experiment: NCI 60 cell line screen, Breast; type: cell-based, human; settings: one dose 10 µM; for inhibition at 10 µM: Homo sapiens
HL-60(TB) = experiment: NCI 60 cell line screen, Leukaemia; type: cell-based, human; settings: one dose 10 µM; for inhibition at 10 µM: Homo sapiens
NCI-H23 = experiment: NCI 60 cell line screen, NSCLung; type: cell-based, human; settings: one dose 10 µM; for inhibition at 10 µM: Homo sapiens
ACHN = experiment: NCI 60 cell line screen, Renal; type: cell-based, human; settings: one dose 10 µM; for inhibition at 10 µM: Homo sapiens
SK-MEL-2 = experiment: NCI 60 cell line screen, Melanoma; type: cell-based, human; settings: one dose 10 µM; for inhibition at 10 µM: Homo sapiens
SF-268 = experiment: NCI 60 cell line screen, CNS; type: cell-based, human; settings: one dose 10 µM; for inhibition at 10 µM: Homo sapiens
T-47D = experiment: NCI 60 cell line screen, Breast; type: cell-based, human; settings: one dose 10 µM; for inhibition at 10 µM: Homo sapiens, T47D
IGROV1 = experiment: NCI 60 cell line screen, Ovarian; type: cell-based, human; settings: for inhibition at 10 µM: Homo sapiens, IGROV-1, one dose 10 µM; for Growth %: one dose 10 µM
EKVX = experiment: NCI 60 cell line screen, NSCLung; type: cell-based, human; settings: one dose 10 µM; for inhibition at 10 µM: Homo sapiens
DU-145 = experiment: NCI 60 cell line screen, Prostate; type: cell-based, human; settings: one dose 10 µM; for inhibition at 10 µM: Homo sapiens
leukaemia panel = experiment: NCI 60 cell line one-dose screen, panel mean; type: cell-based; settings: Homo sapiens, one dose 10 μM, read-out: mean growth inhibition
Procedure: The antiproliferative effects of selected compounds 33, 37 and 43 were initially evaluated in the NCI 60 cell line screen at 10 μM concentration (see Supplementary Materials Table S3).
aData obtained from NCI in vitro human tumour cell screen 1 dose assay (10 µM). 33 (NCI

HCT-116 = experiment: NCI 60 cell line screen, Colon; type: cell-based, human; settings: one dose 10 µM; for inhibition at 10 µM: Homo sapiens
RPMI-8226 = experiment: NCI 60 cell line screen, Leukaemia; type: cell-based, human; settings: one dose 10 µM; for inhibition at 10 µM: Homo sapiens
SK-MEL-28 = experiment: NCI 60 cell line screen, Melanoma; type: cell-based, human; settings: one dose 10 µM; for inhibition at 10 µM: Homo sapiens
TK-10 = experiment: NCI 60 cell line screen, Renal; type: cell-based, human; settings: one dose 10 µM; for inhibition at 10 µM: Homo sapiens

CCOc1ccc(C2N(c3cc(OC)c(OC)c(OC)c3)C(=O)C2(F)F)cc1 (stereo not shown) [Compound 37, 4-(4-Ethoxyphenyl)-3,3-difluoro-1-(3,4,5-trimethoxyphenyl)azetidin-2-one]
inhibition at 10 µM (M14): 72.5% | Growth % (M14): 27.45% | inhibition at 10 µM (HS 578T): 62.6% | Growth % (HS 578T): 37.42% | inhibition at 10 µM (SW-620): 74.5% | Growth % (SW-620): 25.47% | inhibition at 10 µM (MDA-MB-435): 83.2% | Growth % (MDA-MB-435): 16.83% | inhibition at 10 µM (SK-MEL-5): 93.2% | Growth % (SK-MEL-5): 6.76% | inhibition at 10 µM (OVCAR-4): 50.4% | Growth % (OVCAR-4): 49.59% | inhibition at 10 µM (HOP-62): 59.2% | Growth % (HOP-62): 40.81% | inhibition at 10 µM (SR): 83.8% | Growth % (SR): 16.25% | inhibition at 10 µM (U251): 63.8% | Growth % (U251): 36.19% | inhibition at 10 µM (SF-295): 43.7% | Growth % (SF-295): 56.32% | inhibition at 10 µM (SK-OV-3): 28.1% | Growth % (SK-OV-3): 71.89% | inhibition at 10 µM (NCI-H226): 29% | Growth % (NCI-H226): 71.01% | inhibition at 10 µM (MOLT-4): 81.9% | Growth % (MOLT-4): 18.14% | inhibition at 10 µM (HOP-92): 44.4% | Growth % (HOP-92): 55.62% | inhibition at 10 µM (HT29): 87.7% | Growth % (HT29): 12.27% | inhibition at 10 µM (NCI-H522): 80.7% | Growth % (NCI-H522): 19.28% | inhibition at 10 µM (UACC-257): 41.3% | Growth % (UACC-257): 58.69% | inhibition at 10 µM (HCT-15): 77.5% | Growth % (HCT-15): 22.55% | inhibition at 10 µM (A498): 7.7% | Growth % (A498): 92.3% | inhibition at 10 µM (OVCAR-3): 92.8% | Growth % (OVCAR-3): 7.25% | inhibition at 10 µM (KM12): 72% | Growth % (KM12): 27.97% | inhibition at 10 µM (MDA-MB-468): 65.1% | Growth % (MDA-MB-468): 34.89% | inhibition at 10 µM (HL-60(TB)): 116% | Growth % (HL-60(TB)): -15.97% | inhibition at 10 µM (NCI-H23): 66.4% | Growth % (NCI-H23): 33.57% | inhibition at 10 µM (ACHN): 44.8% | Growth % (ACHN): 55.25% | inhibition at 10 µM (SK-MEL-2): 8.22% | Growth % (SK-MEL-2): 91.78% | inhibition at 10 µM (SF-268): 47.6% | Growth % (SF-268): 52.38% | inhibition at 10 µM (T-47D): 30% | Growth % (T-47D): 70.03% | inhibition at 10 µM (IGROV1): 62.2% | Growth % (IGROV1): 37.8% | inhibition at 10 µM (EKVX): 24.7% | Growth % (EKVX): 75.34% | inhibition at 10 µM (DU-145): 70% | Growth % (DU-145): 30.05% | inhibition at 10 µM (leukaemia panel): 91.4% | inhibition at 10 µM (HCT-116): 91.1% | Growth % (HCT-116): 8.92% | inhibition at 10 µM (RPMI-8226): 85.4% | Growth % (RPMI-8226): 14.64% | inhibition at 10 µM (SK-MEL-28): 33.2% | Growth % (SK-MEL-28): 66.8% | inhibition at 10 µM (TK-10): -3.32% | Growth % (TK-10): 103.32%

COc1ccc(C2N(c3cc(OC)c(OC)c(OC)c3)C(=O)C2(F)F)cc1F (stereo not shown) [Compound 43, 3,3-Difluoro-4-(3-fluoro-4-methoxyphenyl)-1-(3,4,5-trimethoxyphenyl)azetidin-2-one]
inhibition at 10 µM (M14): 75.8% | Growth % (M14): 24.24% | inhibition at 10 µM (HS 578T): 78.1% | Growth % (HS 578T): 21.93% | inhibition at 10 µM (SW-620): 78.8% | Growth % (SW-620): 21.22% | inhibition at 10 µM (MDA-MB-435): 87.1% | Growth % (MDA-MB-435): 12.92% | inhibition at 10 µM (SK-MEL-5): 91.9% | Growth % (SK-MEL-5): 8.08% | inhibition at 10 µM (OVCAR-4): 41.7% | Growth % (OVCAR-4): 58.34% | inhibition at 10 µM (HOP-62): 61.6% | Growth % (HOP-62): 38.43% | inhibition at 10 µM (SR): 81.3% | Growth % (SR): 18.7% | inhibition at 10 µM (U251): 58.4% | Growth % (U251): 41.61% | inhibition at 10 µM (SF-295): 51.7% | Growth % (SF-295): 48.29% | inhibition at 10 µM (SK-OV-3): 24.5% | Growth % (SK-OV-3): 75.49% | inhibition at 10 µM (NCI-H226): 24.5% | Growth % (NCI-H226): 75.53% | inhibition at 10 µM (MOLT-4): 81.3% | Growth % (MOLT-4): 18.67% | inhibition at 10 µM (HOP-92): 39.2% | Growth % (HOP-92): 60.84% | inhibition at 10 µM (HT29): 88.8% | Growth % (HT29): 11.16% | inhibition at 10 µM (NCI-H522): 82.5% | Growth % (NCI-H522): 17.54% | inhibition at 10 µM (UACC-257): 50% | Growth % (UACC-257): 50.01% | inhibition at 10 µM (HCT-15): 80.6% | Growth % (HCT-15): 19.44% | inhibition at 10 µM (A498): 2.19% | Growth % (A498): 97.81% | inhibition at 10 µM (OVCAR-3): 88.4% | Growth % (OVCAR-3): 11.64% | inhibition at 10 µM (KM12): 77.1% | Growth % (KM12): 22.9% | inhibition at 10 µM (MDA-MB-468): 55.5% | Growth % (MDA-MB-468): 44.48% | inhibition at 10 µM (HL-60(TB)): 99.1% | Growth % (HL-60(TB)): 0.94% | inhibition at 10 µM (NCI-H23): 62.1% | Growth % (NCI-H23): 37.86% | inhibition at 10 µM (ACHN): 39.2% | Growth % (ACHN): 60.82% | inhibition at 10 µM (SK-MEL-2): 15.4% | Growth % (SK-MEL-2): 84.61% | inhibition at 10 µM (SF-268): 47.1% | Growth % (SF-268): 52.94% | inhibition at 10 µM (T-47D): 34.3% | Growth % (T-47D): 65.69% | inhibition at 10 µM (IGROV1): 55.8% | Growth % (IGROV1): 44.2% | inhibition at 10 µM (EKVX): 22.3% | Growth % (EKVX): 77.7% | inhibition at 10 µM (DU-145): 74.8% | Growth % (DU-145): 25.22% | inhibition at 10 µM (leukaemia panel): 86.3% | inhibition at 10 µM (HCT-116): 94.2% | Growth % (HCT-116): 5.76% | inhibition at 10 µM (RPMI-8226): 79.2% | Growth % (RPMI-8226): 20.78% | inhibition at 10 µM (SK-MEL-28): 22.8% | Growth % (SK-MEL-28): 77.22% | inhibition at 10 µM (TK-10): -5.64% | Growth % (TK-10): 105.64%
